Drawing on PubChem BioAssay (NCI), this text covers GI50 and TGI for eight compounds.

Values joined by “and” are separate entries in the source; they are usually repeats but may differ in a detail not shown here. Equal entries are not always repeated.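 Cultured in 96-well plates, cells were exposed to test compound for 48 hours across five concentrations. At the GI50, growth is halved. Definition used: TGI = concentration required for complete inhibition of growth.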

Some test systems named below: CCRF-CEM leukemia; SNB-75 CNS; A498 renal; MCF7 breast; NCI-H522 lung; HL-60(TB) leukemia; RPMI-8226 leukemia; ACHN renal; OVCAR-5 ovarian; SK-MEL-5 melanoma.
Common to all, as to assay: NCI-60 cell line screen, 48 h

As for `CN1CCN(c2ccc3nc(-c4[nH]ncc4Nc4ncnc5c4OCCCN5)[nH]c3c2)CC1`, the GI50 in the assay on CCRF-CEM leukemia is less than 0.01 µM; in the assay with SNB-75 CNS, less than 0.01 µM; in the assay with A498 renal it was less than 0.013 µM; with MCF7 breast, less than 0.01 µM; with NCI-H522 lung, less than 0.0117 µM; in the assay on HL-60(TB) leukemia, less than 0.01 µM. Moreover, the GI50 in the assay with RPMI-8226 leukemia is 0.0418 µM; with ACHN renal it was 0.0139 µM; with OVCAR-5 ovarian it was 0.0121 µM; in the assay on SK-MEL-5 melanoma, 0.0204 µM. In addition, the TGI with CCRF-CEM leukemia stood at 1.36 µM; with SNB-75 CNS it was 0.0177 µM; with A498 renal, 0.0341 µM; in the assay with MCF7 breast, 0.145 µM; in the assay on NCI-H522 lung, 0.0488 µM; in the assay on HL-60(TB) leukemia, 0.0298 µM. The TGI turned out to be 0.155 µM in the assay with RPMI-8226 leukemia, 0.105 µM in the assay with ACHN renal, 0.163 µM in the assay on OVCAR-5 ovarian and 0.0976 µM in the assay with SK-MEL-5 melanoma.
In the case of `CN(C)c1ccc(Nc2c3ccccc3nc3cc(NC(=O)CCN4CCCC4)ccc23)cc1`, the GI50 in the assay with CCRF-CEM leukemia was 0.0778 µM; with SNB-75 CNS, 0.381 µM; with A498 renal, 0.442 µM; with MCF7 breast, 0.0711 µM; in the assay with NCI-H522 lung, 0.541 µM; with HL-60(TB) leukemia, 0.19 µM. Also, the GI50 is 0.185 µM with RPMI-8226 leukemia, 0.321 µM in the assay on ACHN renal, 0.89 µM with OVCAR-5 ovarian and 1.04 µM in the assay on SK-MEL-5 melanoma. The TGI with CCRF-CEM leukemia amounted to 1.38 µM; in the assay with SNB-75 CNS, 1.72 µM; in the assay with A498 renal, 1.98 µM; with MCF7 breast, 1.61 µM; in the assay on NCI-H522 lung it was 2.21 µM; in the assay on HL-60(TB) leukemia, 0.763 µM. For the same compound, the TGI in the assay on RPMI-8226 leukemia is 0.711 µM; with ACHN renal, 1.12 µM; in the assay on OVCAR-5 ovarian it was 2.74 µM; in the assay on SK-MEL-5 melanoma it was 2.32 µM.
For the compound `COc1ccc(C(=O)/C=C/c2cc(-c3ccc4c(c3)OCO4)n[nH]2)cc1OC`, the GI50 in the assay on CCRF-CEM leukemia was 2.52 µM; in the assay with SNB-75 CNS, 1.98 µM; with A498 renal, 1.55 µM; with MCF7 breast, 3.27 µM; in the assay on NCI-H522 lung, 1.82 µM; in the assay with HL-60(TB) leukemia, 2.82 µM. In addition, the GI50 is 1.03 µM with RPMI-8226 leukemia, 3.49 µM in the assay with ACHN renal, 3.36 µM with OVCAR-5 ovarian and 6.74 µM in the assay on SK-MEL-5 melanoma. The TGI in the assay on CCRF-CEM leukemia amounted to 9.58 µM; in the assay with SNB-75 CNS it was 7.57 µM; in the assay on A498 renal, 4.23 µM; with MCF7 breast, 16.8 µM; with NCI-H522 lung it was 4.44 µM; with HL-60(TB) leukemia it was 11.8 µM. For the same compound, the TGI in the assay on RPMI-8226 leukemia was determined as 5.24 µM; in the assay on ACHN renal, 56.5 µM; in the assay on OVCAR-5 ovarian, 23.2 µM; in the assay on SK-MEL-5 melanoma, 19.9 µM.
Consider `CC#CC#C/C=C1\C=CC2(OC=CC2OC(C)=O)O1` (stereo not given), for which the TGI in the assay with CCRF-CEM leukemia is 40.3 µM and 72.9 µM; in the assay with SNB-75 CNS it was > 100 µM and 95.9 µM; with A498 renal, greater than 100 µM; in the assay on MCF7 breast, 30.8 µM; with NCI-H522 lung, 39.2 µM and 11.1 µM; in the assay with HL-60(TB) leukemia it was 36.5 µM and > 86.7 µM. Further, the TGI is greater than 100 µM in the assay with RPMI-8226 leukemia, 33.9 µM with ACHN renal, greater than 100 µM in the assay on OVCAR-5 ovarian and 36.8 µM in the assay on SK-MEL-5 melanoma. Moreover, the GI50 in the assay with NCI-H522 lung was 14.7 µM and 5.72 µM; in the assay with OVCAR-5 ovarian it was 30.6 µM and 9.87 µM.
With `O=C1C(Br)=C(Br)C(=O)c2ccccc21`, the GI50 in the assay on CCRF-CEM leukemia is 9.85 µM and 2.25 µM; in the assay on SNB-75 CNS, 27.2 µM and 3.27 µM; with A498 renal, 48.5 µM and 13.4 µM; in the assay with NCI-H522 lung it was 16.3 µM and 3.77 µM; with ACHN renal, 15.2 µM and 5.76 µM. Further, the TGI in the assay with SNB-75 CNS is 79 µM and 11.1 µM; in the assay on A498 renal, > 100 µM and 27.1 µM; with MCF7 breast, greater than 100 µM; with NCI-H522 lung, 29.9 µM and 15.5 µM; in the assay with HL-60(TB) leukemia, 15.6 µM; in the assay with RPMI-8226 leukemia, 10.4 µM. For the same compound, the TGI was 28.4 µM and 14.2 µM in the assay with ACHN renal; 41.7 µM and 22.9 µM in the assay with OVCAR-5 ovarian; 23.3 µM in the assay with SK-MEL-5 melanoma.
Consider `O=C1CCSC(=S)N1c1ccc(Br)c(Cl)c1`, for which the TGI with CCRF-CEM leukemia is greater than 100 µM; with SNB-75 CNS, 52.6 µM; with A498 renal, 48.4 µM; with MCF7 breast, 48.6 µM; with NCI-H522 lung it was 42.6 µM; in the assay with HL-60(TB) leukemia, 75.9 µM. For the same compound, the TGI was greater than 100 µM in the assay on RPMI-8226 leukemia, 38.9 µM with ACHN renal, greater than 100 µM with OVCAR-5 ovarian and 35.9 µM in the assay on SK-MEL-5 melanoma.
Consider `O=C(Nc1ccc(Oc2ccc(NC(=O)Nc3ccc([N+](=O)[O-])cc3)cc2)cc1)Nc1ccc([N+](=O)[O-])cc1`, for which the GI50 is 0.61 µM in the assay on CCRF-CEM leukemia; 2.78 µM in the assay with SNB-75 CNS; 1.97 µM with A498 renal; 1.68 µM with MCF7 breast; 1.03 µM in the assay on NCI-H522 lung; 0.787 µM in the assay with HL-60(TB) leukemia. The GI50 with RPMI-8226 leukemia was 0.303 µM; in the assay on ACHN renal, 1.92 µM; in the assay on OVCAR-5 ovarian it was 3.59 µM; with SK-MEL-5 melanoma it was 1.66 µM. Also, the TGI was 3.22 µM in the assay on CCRF-CEM leukemia; greater than 100 µM in the assay with SNB-75 CNS; 7.23 µM with A498 renal; 6.22 µM with MCF7 breast; 4.32 µM with NCI-H522 lung; 3.41 µM with HL-60(TB) leukemia. Moreover, the TGI with RPMI-8226 leukemia was 1.84 µM; in the assay on ACHN renal it was greater than 52.6 µM; with OVCAR-5 ovarian, greater than 100 µM; with SK-MEL-5 melanoma, 3.32 µM.
`COc1ccc2c(c1)[nH]c(=O)c1c3cc(OC)c(OC)cc3cn21`: the GI50 in the assay with CCRF-CEM leukemia is less than 0.0114 µM; with SNB-75 CNS, less than 0.01 µM; in the assay with A498 renal, less than 0.01 µM; in the assay on MCF7 breast, 0.0323 µM; with NCI-H522 lung, less than 0.01 µM; in the assay with HL-60(TB) leukemia it was less than 0.01 µM. In addition, the GI50 with RPMI-8226 leukemia is less than 0.0134 µM; in the assay with ACHN renal, less than 0.01 µM; in the assay on OVCAR-5 ovarian it was 0.0411 µM; with SK-MEL-5 melanoma it was less than 0.01 µM. The TGI in the assay on CCRF-CEM leukemia is 1.12 µM; in the assay on SNB-75 CNS it was 19.7 µM; with A498 renal, 0.072 µM; in the assay with MCF7 breast, 1.28 µM; with NCI-H522 lung, 0.0125 µM; in the assay with HL-60(TB) leukemia, less than 0.0104 µM. Also, the TGI in the assay on ACHN renal turned out to be 16.1 µM; in the assay on OVCAR-5 ovarian, 18.1 µM; in the assay on SK-MEL-5 melanoma it was 11.2 µM.
